Assay results published in publication PMC9298916, “The Discovery and Structure‐Activity Evaluation of (+)‐Floyocidin B and Synthetic Analogs” (Chemmedchem, 2021).
≈ marks a conversion by molar mass, not a printed value. Like-named read-outs stand apart in the source and are kept apart here.

Columns and labels:
[1] = tested on: M. catarrhalis ATCC25238I; assay: Micro-broth dilution growth inhibition, M. catarrhalis; format: cell-based
[2] = tested on: E. coli ATCC25922; assay: Micro-broth dilution growth inhibition, E. coli (CAMH); format: cell-based; conditions: Escherichia coli, 18 h
[3] = tested on: P. aeruginosa ATCC27853; assay: Micro-broth dilution growth inhibition, P. aeruginosa; format: cell-based; conditions: Pseudomonas aeruginosa, 18 h
[4] = tested on: HepG2 cells; assay: Cytotoxicity on HepG2 cells (CellTiterGlo); format: cell-based; conditions: 40 h
Description: (§1) Cytotoxicity on THP1 and HepG2 cells
(§2) After 4 hours of HepG2 cell line (provided by ATCC) plating at 2.500 cells /well in 384-w plates, compounds were added to the cells. After an incubation at 37 °C for 40 h, the CellTiterGlo assay (provided by Promega) was performed.
(§3) Luminescence measurement is related to the cell viability. Compound activity is determined by using the control wells with no treatment as control (100% of growth). The assay was performed identically with THP1 cells. All incubations were […]

[5] = Microsomal stability, human; format: in vitro ADME; conditions: 1 µM compound; for microsomal CLint at 1 µM / half-life at 1 µM: human, pooled liver microsomes, pH 7.4, human liver microsomes 0.5 mg/mL; for half-life at 1 µM: read-out: Microsomal stability t1/2, Human; for Microsomal stability CLint, Human / Microsomal stability t1/2, Human: human liver microsomes 0.5 mg/mL
Description: (§4) 2.4. Assay descriptions for the profiling of all four stereoisomers of (+)-floyocidin B and (−)-avicennone C,1 the avicennone C-floyocidin B hybrids 35, ent-35, 36 and ent-36 as well as the natural product (+)-floyocidin A. […]
(§5) Pooled liver microsomes are purchased. Microsomes are stored at –80 °C prior to use. Microsomes (final protein concentration 0.5 mg/mL), 0.1 M phosphate buffer pH 7.4, and test compound (final substrate concentration 1 µM; final DMSO concentration 0.25%) are preincubated at 37 °C prior to the addition of NADPH (final concentration 1 mM) to initiate the reaction. A minus cofactor control i ncubation is included for each compound tested where 0.1 M phosphate buffer pH 7.4 is added instead of NADPH. Two control compounds are included. All incubations are performed singularly for each test compound. Each compound is incubate d for 0, 5, 15, 30, and 45 min. The control is incubated for 45 min only. The reactions are stopped by transferring incubate into acetonitrile at the appropriat e time points, in a 1:3 ratio. The termination plates are centrifuged at 3,000 rpm for 20 min at 4 °C to precipitate the protein.
(§6) From a plot of ln peak area ratio (compound peak area/internal standard peak area) against time, the gradient of the line is determined. Subsequently, half -life and intrinsic clearance are calculated using the equations below:
(§7) Elimination rate constant (k) = (- gradient)
(§8) Intrinsic clearance (CL )(µL/min/mg protein) = V x 0.693 […]
(§9) where V = Incubation volume (µL)/Microsomal protein (mg)
(§10) Relevant control compounds are assessed, ensuring intrinsic clearance values fall within the specified limits (if available). […]

[6] = tested on: C. albicans FH2173; assay: Micro-broth dilution growth inhibition, C. albicans (ATP quantification); format: cell-based; conditions: Candida albicans, FH2173, 48 h, read-out: MIC
[7] = Microsomal stability, mouse; format: in vitro ADME; conditions: 1 µM compound; for microsomal CLint at 1 µM / half-life at 1 µM: mouse, pooled liver microsomes, pH 7.4, mouse liver microsomes 0.5 mg/mL; for microsomal CLint at 1 µM: read-out: Microsomal stability CLint, Mouse; for half-life at 1 µM: read-out: Microsomal stability t1/2, Mouse; for Microsomal stability CLint, Mouse / Microsomal stability t1/2, Mouse: mouse liver microsomes 0.5 mg/mL
Description: as §4, §5, §6, §7, §8, §9, §10

[8] = physchem; format: physicochemical; conditions: for chromatographic logD: pH 7.4, Log D pH 7.4
Description: 2.4. Assay descriptions for the profiling of all four stereoisomers of (+)-floyocidin B and (−)-avicennone C,1 the avicennone C-floyocidin B hybrids 35, ent-35, 36 and ent-36 as well as the natural product (+)-floyocidin A.
Determination of logD 7.4
LogD values at pH 7.4 were determined by a standardized HPLC method derived from by Genieser et al.8 The calculation of the logD value for measured compounds is performed by comparison of the retention times with standard compounds of known distribution coefficients between 1 -octanol and water at pH 7.4. […]
8 Krass, J. D., Jastorff, B., and Genieser, H.-G. Anal. Chem. 1997, 69, 2575–2581. […]

[9] = tested on: S. aureus ATCC25923; assay: Micro-broth dilution growth inhibition, S. aureus; format: cell-based; conditions: Staphylococcus aureus, 18 h
[10] = tested on: E. coli ATCC25922 MHC; assay: Micro-broth dilution growth inhibition, E. coli in CAMH with 44 mM sodium bicarbonate (MHC); format: cell-based; conditions: Escherichia coli, ATCC25922, 18 h, E. coli ATCC25922 MHC (CAMH + 44 mM sodium bicarbonate), read-out: MIC
[11] = tested on: M. tuberculosis H37Rv; assay: Growth inhibition, M. tuberculosis H37Rv (Middlebrook 7H9, CellTiter-Blue); format: cell-based; conditions: M. tuberculosis H37Rv (Mtb), 6 days
[12] = tested on: THP1 cells; assay: Cytotoxicity on THP1 cells (CellTiterGlo); format: cell-based; conditions: for Cytotoxicity TC50 THP1: THP1 cells, 40 h
Description: as §1, §2, §3

[13] = Cellular permeability assay utilizing Caco2 cell line; conditions: human; for Papp at 120 min, 10 µM: Caco-2, Caco‐2 permeability Papp +Elacridar, A2B in the presence of elacridar; for Papp A→B at 120 min, 10 µM: Caco-2, Caco‐2 permeability Papp A2B, A2B
[14] = tested on: Caco-2 cells; assay: as above; conditions: 10 µM, 120 min; for Caco‐2 permeability recovery +Elacridar / Caco‐2 permeability Papp +Elacridar: A2B in the presence of elacridar
[15] = Moraxella catarrhalis, ATCC25238I, read-out: MIC
[16] = Mycobacterium tuberculosis, 144 h, read-out: MIC

| Structure (SMILES) | MIC [1, 15] | MIC [2] | MIC [3] | Cytotoxicity TC50 HepG2 [4] | microsomal CLint at 1 µM [5] | half-life at 1 µM [5] | MIC [6] | microsomal CLint at 1 µM [7] | half-life at 1 µM [7] | chromatographic logD [8] | MIC [9] | MIC [10] | MIC [11, 16] | Cytotoxicity TC50 THP1 [12] | Papp at 120 min, 10 µM [13] | Caco‐2 permeability recovery +Elacridar [14] | Caco‐2 permeability recovery A2B [14] | Microsomal stability CLint, Mouse [7] | Microsomal stability t1/2, Mouse [7] | Caco‐2 permeability Papp A2B [14] | also measured |
| --- | --- | --- | --- | --- | --- | --- | --- | --- | --- | --- | --- | --- | --- | --- | --- | --- | --- | --- | --- | --- | --- |
| CCC/C=C/c1cc2c(cn1)[C@@H](O)[C@H]1O[C@@]1(CC=C(C)C)C2=O [compound 4, (1aR,2R,7aR)‐2‐Hydroxy‐7 a‐(3‐methylbut‐2‐en‐1‐yl)‐5‐((E)‐pent‐1‐en‐1‐yl)‐1 a,7 a‐dihydrooxireno[2,3‐g]isoquinolin‐7(2H)‐one] | 16 µg/mL (≈ 51.1 µM) | > 128 µg/mL | > 128 µg/mL | 4.5 µM | 72.7 µL/min/mg | 19.1 min | > 128 µg/mL | 349 µL/min/mg | 3.97 min | 4.01 | > 128 µg/mL | > 128 µg/mL | 9.4 µg/mL (≈ 30 µM) | 5.84 µM | 5.62 ×10⁻⁶ cm/s | 14.2% | 10.1% | – | – | – | Papp A→B at 120 min, 10 µM [13]: 4.11 ×10⁻⁶ cm/s |
| CCCC=Cc1ccc2c(c1)C(=O)C1(CC=C(C)C)OC1C2O (stereo not drawn) [ent‐35] | – | – | – | 14.7 µM | – | – | – | – | – | – | – | – | – | 12.9 µM | – | [b] (46.1) % | 37.2% | 561 μL/min/mg protein | 2.47 min | 162 10^−7 cm s^−1 | MIC [1]: 32 µg/mL (≈ 102 µM); Microsomal stability CLint, Human [5]: 40.5 μL/min/mg protein; Microsomal stability t1/2, Human [5]: 34.3 min; Log D pH 7.4 [8]: 4.72; MIC [11]: 9.4 µg/mL (≈ 30.1 µM); Caco‐2 permeability recovery +Elacridar ([14]; listed as ent-35): 46.1%; Caco‐2 permeability recovery A2B ([14]; listed as ent-35): 37.2% |
| CCCC=Cc1cc2c(cn1)C(O)C1OC1(CC=C(C)C)C2=O (stereo not drawn) [ent‐4] | 16 µg/mL (≈ 51.1 µM) | > 128 µg/mL | > 128 µg/mL | 5.97 µM | 26.9 µL/min/mg | 51.6 min | > 128 µg/mL | – | – | 3.97 | > 128 µg/mL | > 128 µg/mL | – | 8.78 µM | 4.67 ×10⁻⁶ cm/s | 28.7% | 23.4% | 271 μL/min/mg protein | 5.12 min | – | Papp A→B at 120 min, 10 µM [13]: 7.35 ×10⁻⁶ cm/s; Caco‐2 permeability recovery +Elacridar ([14]; listed as ent-4): 28.7%; Caco‐2 permeability recovery A2B ([14]; listed as ent-4): 23.4% |
| CCCC=Cc1ccc2c(c1)C(=O)C1(CC=C(C)C)OC1C2O (stereo not drawn) [ent‐36] | – | – | – | 11.3 µM | – | – | – | – | – | – | – | – | – | 18.2 µM | – | 12.0% | 14.3% | 721 μL/min/mg protein | 1.92 min | 8.55 10^−7 cm s^−1 | Microsomal stability CLint, Human [5]: 29.9 μL/min/mg protein; Microsomal stability t1/2, Human [5]: 46.3 min; Log D pH 7.4 [8]: 4.74; MIC [11]: 9.4 µg/mL (≈ 30.1 µM); Caco‐2 permeability Papp +Elacridar [14]: 12.4 10^−7 cm s^−1; Caco‐2 permeability recovery +Elacridar ([14]; listed as ent-36): 12.0%; Caco‐2 permeability recovery A2B ([14]; listed as ent-36): 14.3% |
| CCC/C=C/c1ccc2c(c1)C(=O)[C@]1(CC=C(C)C)O[C@@H]1[C@H]2O [compound 36] | 8 µg/mL (≈ 25.6 µM) | > 128 µg/mL | > 128 µg/mL | 16.1 µM | 39.7 µL/min/mg | 34.9 min | > 128 µg/mL | 259 µL/min/mg | 5.36 min | 4.73 | > 128 µg/mL | > 128 µg/mL | 9.4 µg/mL (≈ 30.1 µM) | 15.1 µM | – | – | – | – | – | – | Cytotoxicity relative to 4 ([12]; TC50 in THP‐1 and HepG2 compared with 4): three times less cytotoxic than 4 |
| CCCC=Cc1ccc2c(c1)C(=O)C1(CC=C(C)C)OC1C2O (centres unmarked) [compound 35] | 64 µg/mL (≈ 205 µM) | > 128 µg/mL | > 128 µg/mL | 9.39 µM | 45.5 µL/min/mg | 30.5 min | > 128 µg/mL | 1040 µL/min/mg | 1.33 min | 4.7 | > 128 µg/mL | > 128 µg/mL | 9.4 µg/mL (≈ 30.1 µM) | 12.9 µM | – | 29.6% | 76.0% | – | – | 135 10^−7 cm s^−1 | Caco‐2 permeability Papp +Elacridar [14]: 181 10^−7 cm s^−1 |
